# Experimental data as given in article PMC7558015, “Enhanced Intestinal Absorption and Pharmacokinetic Modulation of Berberine and Its Metabolites through the Inhibition of P-Glycoprotein and Intestinal Metabolism in Rats Using a Berberine Mixed Micelle Formulation” (Pharmaceutics, 2020).
# Read-outs that look alike come from different tables or passages of the source.
# Columns and labels:
# Caco-2 cells [1] = assay: cells
# Method: Caco-2 cells were seeded onto 96-well plates (BD-Corning, Corning, NY, USA) at a density of 1 × 10^5 cells/well, and cultured for 24 h at 37 °C in a 5% CO2 incubator. […] As a control group, berberine was treated at concentrations of 0, 1, 5, 10, 50, 100, 500, and 1000 μM. After 24 h of treatment, 20 μL of CellTiter 96 aqueous one solution from a cell proliferation assay kit (Promega, Madison, WI, USA) was added to the culture medium and incubated for 1 h. The absorbance rate of the reaction mixture was measured at 492 nm using an Infiniti M200Pro microplate reader (Tecan, Zurich, Switzerland).
# [2] = Caco-2 permeability / transport of berberine and berberine formulation; format: in vitro ADME; conditions: human
# Method: (§1) The cells were grown for 21 days and the culture medium was changed every 2 days. The integrity of the cell monolayers was evaluated prior to the transport experiments by measuring the transepithelial electrical resistance (TEER). […] To characterize the absorption transport of berberine in Caco-2 cells, the apical to basal (A to B) and basal to apical (B to A) transport of berberine was measured. […] The insert was then transferred to a well containing fresh HBSS medium every 15 min for 1 h. […] The transport medium on the apical side was replaced with 0.4 mL of fresh incubation medium every 15 min for 1 h. […] The insert was then transferred to a well containing fresh HBSS medium every 15 min for 1 h. […] The transport medium on the apical side was replaced with 0.4 mL of fresh incubation medium every 15 min for 1 h. […] The TEER values were monitored before and after the transport experiments with berberine formulation using an epithelial TEER meter (World Precision Instruments, Sarasota, FL, USA). A 100 μL aliquot of each sample was added to a 100 μL aliquot of ice-cold methanol containing 10 ng/mL of propranolol (IS). After vortexing and centrifuging the samples at 16,000× g for 10 min, the supernatant was injected directly into the LC-MS/MS system.
# Caco-2 cells [3] = assay: as above; format: in vitro ADME
# Method: as §1
# [4] = Pharmacokinetic study after oral administration in rats; format: in vivo
# Method: All the animal procedures were approved by the animal care and use committee of Kyungpook National University (Daegu, Korea; Approval No. KNU-2014-0097 and KNU-2019-0004). Male Sprague–Dawley rats weighing 250–270 g (8 weeks old) were purchased from Samtako Bio Korea (Osan, Kyunggido, Korea). When the rats arrived, they were housed with a 12 h light/dark cycle. Food and water were supplied ad libitum for 1 week prior to the animal experiment. […] The femoral vein, femoral arteries, and bile ducts of the rats were cannulated with polyethylene tubes (PE50 or PE10, Jungdo, Seoul, Korea) under anesthesia with isoflurane […] on the warming surgery table (YTK corp. Seoul, Korea), and the rats were remained on the warming table to maintain body temperature during the pharmacokinetic study. […] The prepared berberine suspension or berberine formulation was administered to rats via oral gavage. Blood samples (approximately 150 µL) were taken via the femoral artery at 0, 0.25, 0.5, 1, 1.5, 2, 4, 8, and 12 h after the oral administration, and pre-warmed saline (approximately 150 µL) was injected into the femoral vein to compensate the blood loss. The blood samples were centrifuged at 10,000× g for 1 min at 4 °C. Bile and urine samples were collected every 4 h for 12 h. After 12 h, the bile and urine samples were pooled and weighed. Aliquots (50 µL each) of plasma, urine, and bile samples were stored at −80 °C for the analysis of berberine and its metabolites. Plasma, urine, and bile samples (50 µL) were added to 150 µL of methanol containing propranolol (10 ng/mL), vortex-mixed for 15 min, and centrifuged at 10,000× g for 5 min at 4 °C. An aliquot (10 µL) of the supernatant was injected into the LC–MS/MS system. Agilent 6430 Triple Quad LC/MS system (Agilent, Wilmington, DE, USA) coupled with an Agilent 1260 series HPLC system was used for the analysis of berberine and its metabolites using the modified method of Kwon et al.. The separation was performed on a Synergy polar RP column (2.0 mm × 150 mm, 4 μm; Phenomenex, Torrance, CA, USA) using a gradient elution of the mobile phase that consisted of methanol and water with 0.1% formic acid at a flow rate of 0.2 mL/min. The composition of the mobile phase was as follows: 55% methanol for 0–2.5 min, 70% methanol for 3–5 min, 55% methanol for 5.3–12 min. The retention time was 3.01 min and 3.53 min for thalifendine-glucuronide and berberrubine-glucuronide, 6.30 min for thalifendine-sulfate, 7.79 min for berberine, 5.47 min for thalifendine, 6.38 min for berberrubine, and 2.53 min for propranolol. Mass spectra were recorded by electrospray ionization with a positive mode. Quantification was carried out using MRM at m/z 498.1 → 322.1 for thalifendine-glucuronide and berberrubine-glucuronide, m/z 402.0 → 322.1 for thalifendine-sulfate, m/z 336.1 → 320.0 for berberine, m/z 322.1 → 307.1 for thalifendine and berberrubine, and m/z 260.0 → 116.0 for propranolol. […] The thalifendine-glucuronide, berberrubine-glucuronide, and thalifendine-sulfate were relatively quantitated using berberine’s standard curve, since the authentic standard compounds were not available. The pharmacokinetic parameters were calculated by non-compartmental analysis using the WinNonlin Version 5.1 software (Pharsight, Certara, NJ, USA). Statistical analysis was performed using SPSS for Windows (version 24.0; IBM Corp., Armonk, NY, USA).
# [5] = test system: β-Glucuronidase and sulfatase; assay: Glucuronidase and sulfatase treatment (bile samples, stability of standards); format: in vitro ADME, Helix pomatia
# Method: The reaction was terminated by adding 150 µL of ice-cold methanol containing propranolol (10 ng/mL), vortex-mixed for 5 min, and centrifuged at 10,000× g for 5 min at 4 °C. An aliquot (10 µL) of the supernatant was injected into the LC–MS/MS system.
# [6] = test system: human colon cancer HCT-8 cells; design: method as in PMID 23682426; conditions: cited from earlier work
# [7] = design: method as in PMID 15531889; conditions: 32 hypercholesterolemic patients; cited from earlier work
# [8] = rats; cited from earlier work
# [9] = cited from earlier work
# [10] = after Berberine Formulation PO 50 mg/kg, rats
# [11] = after Berberine PO 50 mg/kg, rats
# [12] = berberine formulation group compared with berberine group, PO 50 mg/kg, rats
# [13] = male, Sprague–Dawley, rat, plasma, po, 50 mg/kg, plasma, after Berberine Formulation PO 50 mg/kg, rats
# [14] = male, Sprague–Dawley, rat, plasma, po, 50 mg/kg, plasma, after Berberine Formulation PO 50 mg/kg, rats, read-out: Tmax (converted)
# [15] = male, Sprague–Dawley, rat, plasma, po, 50 mg/kg, plasma, after Berberine PO 50 mg/kg, rats
# [16] = male, Sprague–Dawley, rat, plasma, po, 50 mg/kg, plasma, after Berberine PO 50 mg/kg, rats, read-out: Tmax (converted)
# [17] = 8 h of incubation, 37 °C, pH 5.0
molecule,measurement,setting,value
COc1ccc2cc3[n+](cc2c1OC)CCc1cc2c(cc1-3)OCO2 [Berberine],IC50,"Caco-2 cells [1]; Homo sapiens, Caco-2, 24 h, read-out: IC50 (cell viability)",933 µM
same,berberine concentration without (significant) cytotoxicity,"Caco-2 cells [1]; human, 24 h",up to 100 μM
same,"efflux ratio at 1 h, 1 μM","[2]; Caco-2, pH 7.4, 1 μM of berberine (alone or in formulation)",14.1
same,"efflux ratio at 1 h, 100 μM","[2]; Caco-2, pH 7.4, 100 μM of berberine (alone or in formulation)",7.5
same,"efflux ratio at 1 h, 10 μM","[2]; Caco-2, pH 7.4, berberine 10 μM, absence of CsA",13.8
same,"efflux ratio at 1 h, 10 μM","[2]; Caco-2, pH 7.4, with cyclosporine A 25 μM, berberine 10 μM, presence of CsA 25 μM",2.2
same,efflux ratio,Caco-2 cells [3]; 100 μM of berberine (alone or in formulation),7.54
same,CLint (P-gp-mediated efflux clearance),Caco-2 cells [3]; Caco-2,1.61 µL/min
same,Kd (absorptive diffusion clearance),Caco-2 cells [3]; Caco-2,0.03 µL/min
same,Vmax of B to A transport,"Caco-2 cells [3]; Caco-2, 1–100 μM, Michaelis–Menten",10.5 pmol/min
same,Km,"Caco-2 cells [3]; Caco-2, 1–100 μM, Michaelis–Menten, read-out: Km of B to A transport",6.5 µM
same,"Xb,12h (amount excreted into bile for 12 h)",[4]; [10],992 ± 563 ng
same,"Xu,12h (amount excreted into urine for 12 h)",[4]; [10],"21,273 ± 12,517 ng"
same,"Xb,12h (amount excreted into bile for 12 h)",[4]; [11],323.7 ± 155.8 ng
same,"Xu,12h (amount excreted into urine for 12 h)",[4]; [11],47.3 ± 30.1 ng
same,fold increase in AUC,[4]; [12],15.6 fold
same,AUC,[4]; [13],537 ng·h/mL
same,Cmax,[4]; [13],140 ± 29.4 ng/mL
same,Tmax,[4]; [14],0.583 h
same,AUC,[4]; [15],34.5 ng·h/mL
same,Cmax,[4]; [15],67 ± 66.9 ng/mL
same,Tmax,[4]; [16],0.5 h
same,stability after glucuronidase and sulfatase treatment,[5]; [17],stable
same,IC50,[6],470 µM
same,decrease of low-density lipoprotein (LDL) cholesterol,[7],25%
same,decrease of triglycerides,[7],35%
same,lowering of total cholesterol,[7],29%
same,AUC post intraduodenal administration as share of AUC post intraportal vein administration,[8],~0.5%
same,AUC post intraportal vein administration as share of intravenous AUC,[8],72%
same,bioavailability,[8],0.68%
same,oral dose disappeared during gastrointestinal first-pass elimination,[8],99.5%
same,AUCliver,[9]; liver,728.6 ng·h/mL
same,share of oral dose entering the portal vein,[9]; oral,0.5%
same,share of oral dose metabolized in the enterocytes,[9]; oral,About 43.5%
same,share of oral dose not absorbed (P-gp-mediated efflux and self-aggregation),[9]; oral,About 56%
same,AUCplasma,[9]; plasma,86.4 ng·h/mL
COc1ccc2cc3[n+](cc2c1O)CCc1cc2c(cc1-3)OCO2 [Berberrubine],Metabolic ratio (metabolite AUC to berberine AUC),[4]; [10],0.00%
same,"Xb,12h (amount excreted into bile for 12 h)",[4]; [10],0 ng
same,"Xu,12h (amount excreted into urine for 12 h)",[4]; [10],67.78 ± 11.89 ng
same,Metabolic ratio (metabolite AUC to berberine AUC),[4]; [11],0.04%
same,"Xb,12h (amount excreted into bile for 12 h)",[4]; [11],0 ng
same,"Xu,12h (amount excreted into urine for 12 h)",[4]; [11],22.80 ± 15.84 ng
same,AUC,[4]; [13],1.73 ng·h/mL
same,Cmax,[4]; [13],0.31 ± 0.18 ng/mL
same,Tmax,[4]; [14],0.917 h
same,AUC,[4]; [15],1.34 ng·h/mL
same,Cmax,[4]; [15],0.16 ± 0.03 ng/mL
same,Tmax,[4]; [16],4.17 h
same,degraded by glucuronidase and sulfatase treatment,[5]; [17],more than 94%
thalifendine/berberrubine-sulfate,Tmax,"[4]; rat, in vivo, po, 50 mg/kg",10.67 ± 2.31 h
same,fold increase in AUC,"[4]; rat, in vivo, po, 50 mg/kg",5.8 fold
COc1c(O)ccc2cc3[n+](cc12)CCc1cc2c(cc1-3)OCO2 [Thalifendine],"Xb,12h (amount excreted into bile for 12 h)",[4]; [10],1871 ± 1092 ng
same,"Xu,12h (amount excreted into urine for 12 h)",[4]; [10],7209 ± 2632 ng
same,Metabolic ratio (metabolite AUC to berberine AUC),[4]; [11],0.09%
same,"Xb,12h (amount excreted into bile for 12 h)",[4]; [11],281.5 ± 250.2 ng
same,"Xu,12h (amount excreted into urine for 12 h)",[4]; [11],199.3 ± 76.1 ng
same,fold increase in AUC,[4]; [12],9.3 fold
same,AUC,[4]; [13],28.1 ng·h/mL
same,Cmax,[4]; [13],5.45 ± 3.12 ng/mL
same,Tmax,[4]; [14],10.7 h
same,AUC,[4]; [15],3.04 ng·h/mL
same,Cmax,[4]; [15],0.64 ± 0.19 ng/mL
same,Tmax,[4]; [16],7 h
same,stability after glucuronidase and sulfatase treatment,[5]; [17],stable
same,increase of peak after glucuronidase and sulfatase treatment,[5]; rat bile collected 12 h after oral berberine,10.6 fold
